Measured values published in PubChem BioAssay (NCI).
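Interpolation was linear, between the two tested concentrations surrounding the appropriate level; five concentrations were tested over 48 hours in 96-well plates. Here, GI50 denotes the concentration required for 50% inhibition of growth. Definition used: TGI = concentration required for complete inhibition of growth.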

Key:
Assay in all cases: NCI tumour cell line growth inhibition, 48 h
[1] = test system: HCT-116 colon
[2] = test system: HCT-15 colon
[3] = test system: SNB-19 CNS
[4] = test system: RXF 393 renal
[5] = test system: K-562 leukemia
[6] = test system: SF-268 CNS
[7] = test system: CCRF-CEM leukemia
[8] = test system: EKVX NSCLC
[9] = test system: SF-539 CNS
[10] = test system: HT29 colon

| Structure (SMILES) | GI50 [1] [µM] | TGI [1] [µM] | GI50 [2] [µM] | TGI [2] [µM] | GI50 [3] [µM] | TGI [3] [µM] | GI50 [4] [µM] | TGI [4] [µM] | GI50 [5] [µM] | TGI [5] [µM] | GI50 [6] [µM] | TGI [6] [µM] | GI50 [7] [µM] | TGI [7] [µM] | TGI [8] [µM] | TGI [9] [µM] | TGI [10] [µM] | GI50 [8] [µM] | GI50 [9] [µM] | GI50 [10] [µM] |
| --- | --- | --- | --- | --- | --- | --- | --- | --- | --- | --- | --- | --- | --- | --- | --- | --- | --- | --- | --- | --- |
| O=C1C(Cl)=C(Nc2cccc(Cl)c2)C(=O)N1Cc1ccccc1 | 3.56 | 13.3 | 10.8 | 27.4 | 14.5 | 55.1 | 1.36 | 7 | 2.9 | > 100 | 6.76 | 22.2 | 2.39 | > 100 |  |  |  |  |  |  |
| CC[C@]12CCCN3CCc4c(n(c5ccccc45)C(=O)C1)[C@@H]32 |  | > 49.6 |  | > 100 |  | > 100 |  | 63.7 |  | > 100 |  | > 75 |  | 33.1 | > 100 | > 51.9 | > 52.7 |  |  |  |
| Cc1ccc(S(=O)(=O)OC2CCN(C)CC2)cc1 |  | > 100 |  | > 100 |  | > 100 |  | > 100 |  | 40.4 |  | > 100 |  |  | > 100 | > 100 | > 100 |  |  |  |
| O=C[C@@H](CO)O[C@H](C=O)c1c[nH]c(=O)[nH]c1=O |  | 513 |  | 327 |  | 813 |  | 163 |  | 818 |  | 427 |  | 973 | 329 | 428 | 595 |  |  |  |
| CCOC(=O)c1c2c(c(O)c3ccccc3c(O)n(Cc3ccc(OC)cc3)c1C)C(=O)C=CC2=O | > 100 | > 100 | > 100 | > 100 | > 100 | > 100 | > 100 | > 100 | 76.9 | > 100 | > 100 | > 100 |  |  | > 100 | > 100 | > 100 | > 100 | 84.6 | > 100 |
| Cc1ccc(NC(=O)c2cc3cc(N=Nc4ccc(Br)cc4)ccc3oc2=O)cc1 |  | > 100 |  | > 100 |  | > 100 |  | > 100 |  |  |  | > 100 |  |  |  |  | > 100 |  |  |  |
| COc1cc(NS(C)(=O)=O)ccc1Nc1c2ccc([N+](=O)[O-])cc2nc2c(C)cccc12 | 0.361 | 10.7 | 1.38 | 4.32 | 0.213 | 14.1 | 1.65 | 6.35 | 0.801 | 9.89 | 0.256 | 13.1 | 0.158 | 3.4 |  | 1.97 | 7.1 |  | 0.241 | 1.41 |
| COc1ccccc1NC(=O)c1sc2nc3c(cc2c1N)C(=O)CCC3 | 6.29 | > 100 |  |  | 12.8 | > 100 | 1.83 | 9.33 | 1.53 | > 100 | 5.06 | > 100 | > 100 | > 100 |  | > 100 |  |  | 3.97 |  |
| CC12CCC3C(CCC4Cc5[nH]c6ccccc6c5CC43C)C1CCC2O (configuration not stated) | 0.501 |  | 0.695 | > 100 | 2.89 | > 100 | 0.738 | 3.31 |  |  | 2.55 | > 100 | 1 | 6.44 | > 100 | 3.77 | > 27.1 | 3.69 | 1.2 | 1.58 |
| CCSCC1CC(O)(c2ccccc2)C(c2ccccc2)C(c2ccc(Cl)cc2)O1 (configuration not stated) | 1.21 | 2.58 | 1.69 | 4.5 |  |  | 0.688 | 2.06 | 1.89 | 8.37 | 2.1 | 5.56 | 2.03 | 6.5 | 4.29 | 3.56 | 3.17 | 1.38 | 1.76 | 1.09 |
| O=C1c2ccccc2-c2c1c1ccccc1c(=O)n2CCCCNCCCn1c2c(c3ccccc3c1=O)C(=O)c1ccccc1-2 | 0.00948 | 0.688 | 0.143 | 0.624 | 0.51 | 10.4 | 0.33 | 7.08 | 0.205 | 9.62 | 0.358 | 6.93 |  |  | 1.75 | 2.07 | 8.95 | 0.782 | 0.492 | 0.0929 |
| COc1ccc(C2CC(=O)c3c(O)cc(O)cc3O2)cc1O (configuration not stated) |  | > 100 |  | > 100 |  | > 100 |  |  |  | > 100 |  | > 100 |  | > 100 | > 100 | > 100 | > 100 |  |  |  |
| O=C1[C@@H]2C(c3ccccc3Br)=NO[C@@H]2C(=O)N1c1ccc(Cc2ccc(N3C(=O)[C@H]4C(c5ccccc5Br)=NO[C@H]4C3=O)cc2)cc1 |  |  |  | > 100 |  |  |  | > 100 |  | > 100 |  | > 100 |  | > 100 | > 100 | > 100 | > 100 |  |  |  |
| O=C(O)C/C(=C\c1ccco1)C(=O)O |  | > 100 |  | > 100 |  | > 100 |  | > 100 |  | > 100 |  |  |  |  | > 100 | > 100 | > 100 |  |  |  |
| COc1ccc(C(=O)c2cc(OC)c(OC)c(OC)c2)cc1 |  | > 25.8 |  |  |  | > 32.7 |  | > 100 |  | > 100 |  | > 86.8 |  | > 100 | > 100 | 1.28 | > 100 |  |  |  |
| O=C(NC1CCN(Cc2ccccc2)CC1)c1cc(-c2ccncc2)nc2ccc(Cl)cc12 | 9.64 | 33.9 | 10.5 | > 48.2 | 26.3 | > 100 | 5.48 | 49.2 | 3.78 | 27.3 | 22.6 | > 100 | 21.2 | > 100 |  | 35.9 | 19.7 |  | 13.1 | 4.7 |
| CCNC(=O)[C@@H]1CCCN2C(=O)CC[C@H](NC(=O)[C@H](Cc3ccc(OP(=O)(O)O)cc3)NC(C)=O)C(=O)N12 | > 25 | > 25 | > 25 | > 25 | > 25 | > 25 | > 25 | > 25 | > 25 | > 25 | > 25 | > 25 | > 25 | > 25 |  | > 25 | > 25 |  | > 25 | > 25 |
